Target: T1, Cruzipain (Trypanosoma cruzi, UniProt P25779)
Experiment: Inhibition of Trypanosoma cruzi Cruzain
Details: not given

T1 sequence (P25779 whole entry): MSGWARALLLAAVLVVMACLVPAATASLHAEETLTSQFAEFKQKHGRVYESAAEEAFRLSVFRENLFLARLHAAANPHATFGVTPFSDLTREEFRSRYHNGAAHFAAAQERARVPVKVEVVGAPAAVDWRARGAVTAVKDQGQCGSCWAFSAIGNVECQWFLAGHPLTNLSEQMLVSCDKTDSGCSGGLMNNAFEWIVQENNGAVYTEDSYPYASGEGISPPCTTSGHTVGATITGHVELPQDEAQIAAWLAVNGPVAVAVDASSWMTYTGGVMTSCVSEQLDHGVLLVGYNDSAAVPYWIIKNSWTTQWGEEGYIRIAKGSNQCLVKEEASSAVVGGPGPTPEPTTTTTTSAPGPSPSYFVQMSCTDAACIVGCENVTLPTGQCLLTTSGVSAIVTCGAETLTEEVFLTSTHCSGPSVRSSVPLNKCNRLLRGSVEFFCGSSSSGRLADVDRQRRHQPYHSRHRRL

Row | Compound | IC50
1 | Clc1ccc2[nH]c3c(NCCCN4CCOCC4)ncnc3c2c1 | 2.5 µM
2 | O=C(COCc1ccccc1Br)NCCc1nc2ccccc2[nH]1 | 77.5 µM

Tested on: not listed separately
Experiment: Lipophilicity, logP of compound
Type: physicochemical
Details: octanol/water

Row | Compound | logP
3 | CCCCC(C(=O)COc1c(F)c(F)cc(F)c1F)n1cc([C@@](C)(NCc2ccc3ncccc3c2)C(C)C)nn1 (stereo not given in full) | 5.8

Target: Cathepsin S (Homo sapiens, UniProt P25774)
Experiment: Binding affinity to Cathepsin S (unknown origin) assessed as inhibition constant measured after 22 hrs
Details: not given

Chain of Cathepsin S (P25774 whole entry): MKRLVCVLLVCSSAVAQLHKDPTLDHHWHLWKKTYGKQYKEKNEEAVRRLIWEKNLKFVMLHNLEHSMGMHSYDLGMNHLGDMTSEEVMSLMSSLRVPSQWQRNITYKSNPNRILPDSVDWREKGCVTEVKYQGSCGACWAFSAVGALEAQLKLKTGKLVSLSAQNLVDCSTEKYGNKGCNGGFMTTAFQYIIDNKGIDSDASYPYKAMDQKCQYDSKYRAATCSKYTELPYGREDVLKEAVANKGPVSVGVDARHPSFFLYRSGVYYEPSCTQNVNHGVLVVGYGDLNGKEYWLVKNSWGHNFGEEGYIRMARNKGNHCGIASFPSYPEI

Row | Compound | Ki
4 | O=C(COc1ccccc1I)NCCc1nc2ccccc2[nH]1 | 48 nM
5 | N#Cc1ccccc1OCC(=O)NCCc1nc2ccccc2[nH]1 | 220 nM
6 | O=C(COc1ccccc1F)NCCc1nc2ccccc2[nH]1 | 360 nM

Target: T2, Rhodesain (Trypanosoma brucei rhodesiense, UniProt Q95PM0)
Experiment: Inhibition of Trypanosoma brucei rhodesiense rhodesain expressed in Pichia pastoris measured for 30 mins using Cbz-Phe-Arg-AMC as substrate
Details: not given

T2 sequence (Q95PM0 whole entry): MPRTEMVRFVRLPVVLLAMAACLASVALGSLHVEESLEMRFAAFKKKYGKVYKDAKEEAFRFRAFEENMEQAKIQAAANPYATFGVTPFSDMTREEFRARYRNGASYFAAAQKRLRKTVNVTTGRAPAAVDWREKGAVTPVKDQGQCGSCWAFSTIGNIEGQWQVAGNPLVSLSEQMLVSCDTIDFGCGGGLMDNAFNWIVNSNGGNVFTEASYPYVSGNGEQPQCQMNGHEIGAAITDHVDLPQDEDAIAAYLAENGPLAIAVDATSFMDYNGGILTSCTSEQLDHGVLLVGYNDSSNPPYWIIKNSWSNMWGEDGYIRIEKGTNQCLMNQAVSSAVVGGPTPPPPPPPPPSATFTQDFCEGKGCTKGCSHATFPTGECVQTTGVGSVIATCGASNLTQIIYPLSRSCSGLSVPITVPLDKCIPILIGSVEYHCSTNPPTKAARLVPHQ

Row | Compound | Ki
7 | Cc1nc(-c2ccccc2)sc1C(=O)N[C@H](/C=C/S(=O)(=O)c1ccccc1)CCc1ccccc1 | 6 nM

Tested on: Trypanosoma brucei brucei
Experiment: Antitrypanosomal activity against Trypanosoma brucei brucei assessed as parasite growth inhibition
Type: functional, organism-based
Details: not given

Row | Compound | EC50
8 | O=C(N[C@@H](Cc1ccccc1)C(=O)N[C@H](/C=C/S(=O)(=O)c1ccccc1)CCCCn1nnc2ccccc21)OCc1ccccc1 | 1880 nM
9 | O=C(N[C@@H](Cc1ccccc1)C(=O)N[C@H](/C=C/S(=O)(=O)c1ccccc1)CCCCNS(=O)(=O)c1ccc2ccccc2c1)OCc1ccccc1 | 1180 nM
10 | CCCCCCS(=O)(=O)NCCCC[C@@H](/C=C/S(=O)(=O)c1ccccc1)NC(=O)[C@H](Cc1ccccc1)NC(=O)OCc1ccccc1 | 1220 nM

Target: T2, Rhodesain
Experiment: Inhibition of Trypanosoma brucei rhodesiense rhodesain
Details: not given

Row | Compound | IC50
11 | OCCCNc1ccnc2cc(Cl)ccc12 | 72 µM
12 | CCOC(=O)/C=C\C(=O)[C@H](CC(C)C)NC(=O)[C@H](Cc1ccccc1)NC(=O)OCc1ccccc1 | 0.0164 µM
13 | CCOC(=O)/C=C/[C@@H](O)[C@H](CCc1ccccc1)NC(=O)[C@H](Cc1ccccc1)NC(=O)OCc1ccccc1 | 20 µM
14 | NCCNc1ccnc2cc(Cl)ccc12 | 126 µM
15 | Clc1ccc2c(NCc3ccccc3)ccnc2c1 | 34 µM
16 | CCCNc1ccnc2cc(Cl)ccc12 | 34.2 µM
17 | Clc1ccc2c(NCCN3CCOCC3)ccnc2c1 | 61 µM
18 | OCCNc1ccnc2cc(Cl)ccc12 | 58 µM
19 | O=C(CNc1ccnc2cc(Cl)ccc12)N1CCOCC1 | 48 µM

Target: T1, Cruzipain
Experiment: Binding affinity to Trypanosoma cruzi Cruzain assessed as inhibition constant
Details: not given

Row | Compound | Ki
20 | O=C(COc1ccc2ccccc2c1Br)NCCc1nc2ccccc2[nH]1 | 80 nM
21 | N#CCNC(=O)[C@H](Cc1ccccc1)NC(=O)c1cc(Br)ccn1 | 251 nM

Tested on: Trypanosoma cruzi
Experiment: Antitrypanosomal activity against Trypanosoma cruzi
Type: functional, organism-based
Details: not given

Row | Compound | EC50
22 | N#CC1(NC(=O)[C@H](Cc2ccccc2)N[C@H](c2ccccc2)C(F)(F)F)CC1 | 120 nM
23 | Cc1nn(C)c2cc(N3CCN(C(=O)[C@@H]4CCCC[C@H]4C(=O)NC4(C#N)CC4)[C@H](C)C3)ccc12 | 1300 nM

Tested on: Trypanosoma cruzi
Experiment: Antitrypanosomal activity against Trypanosoma cruzi assessed as inhibition of growth incubated for 4 days by resazurin dye based assay
Type: functional, organism-based
Details: 96 h

Row | Compound | EC50
24 | CC(C)(F)C[C@H](N[C@@H](c1ccc(-c2ccc(S(C)(=O)=O)cc2)cc1)C(F)(F)F)C(=O)NC1(C#N)CC1 [ODANACATIB] | 2510 nM

Tested on: Trypanosoma brucei
Experiment: Antitrypanosomal activity against Trypanosoma brucei assessed as parasite growth inhibition
Type: functional, organism-based
Details: not given

Row | Compound | EC50
25 | N#Cc1nc(Cc2ccccc2)c2ncn(CC3CCCCO3)c2n1 (stereo not given) | 240 nM
26 | CCCCn1cnc2c(Cc3ccc(OC)cc3)nc(C#N)nc21 | 390 nM
27 | COc1ccc(Cn2cnc3c(Cc4ccc(Cl)cc4)nc(C#N)nc32)cc1 | 270 nM
28 | CCCCn1cnc2c(Cc3cccc(C)c3)nc(C#N)nc21 | 270 nM
29 | N#Cc1nc(C2CCCCC2)c2ncn(Cc3ccccc3)c2n1 | 330 nM
30 | N#Cc1nc(Cc2ccccc2)c2ncn(Cc3cccc(C(F)(F)F)c3)c2n1 | 260 nM
31 | N#Cc1nc(Cc2ccc(Cl)c(Cl)c2)c2ncn(CCCCCO)c2n1 | 60 nM
32 | N#Cc1nc(Cc2ccc(Cl)cc2)c2ncn(Cc3cccc(C(F)(F)F)c3)c2n1 | 340 nM

Next, values leading:

Row | EC50 | Compound
33 | 260 nM | N#Cc1nc(Cc2ccc(Cl)c(Cl)c2)c2ncn(Cc3ccccc3)c2n1
34 | 110 nM | N#Cc1nc(Cc2ccc(Cl)c(Cl)c2)c2ncn(CCCO)c2n1
35 | 150 nM | COCCCn1cnc2c(Cc3ccc(Cl)c(Cl)c3)nc(C#N)nc21
36 | 180 nM | CCCCn1cnc2c(Cc3ccc(Cl)c(Cl)c3)nc(C#N)nc21
37 | 220 nM | COC(CCn1cnc2c(Cc3ccc(Cl)c(Cl)c3)nc(C#N)nc21)OC
38 | 310 nM | N#Cc1nc(Cc2ccc(Cl)cc2)c2ncn(CCCO)c2n1

Tested on: Trypanosoma cruzi
Experiment: Antitrypanosomal activity against Trypanosoma cruzi assessed as reduction in parasite growth
Type: functional, organism-based
Details: not given

Row | Compound | IC50
39 | OCCN1CCN(c2ccnc3cc(Cl)ccc23)CC1 | > 250 µM
40 | OCCCNc1ccnc2cc(Cl)ccc12 | 6.5 µM
41 | NCCCNc1ccnc2cc(Cl)ccc12 | > 250 µM
42 | Clc1ccc2c(NCCN3CCOCC3)ccnc2c1 | > 250 µM
43 | OCCNc1ccnc2cc(Cl)ccc12 | > 250 µM
44 | O=C(CNc1ccnc2cc(Cl)ccc12)N1CCOCC1 | > 250 µM
45 | O=C(COCc1ccccc1Br)NCCc1nc2ccccc2[nH]1 | 34.6 µM

From ChEMBL document CHEMBL5244221, “Synthesis and structure-activity relationship studies of cruzain and rhodesain inhibitors” (Eur J Med Chem, 2018)
